The NIST ThermoML archive (doi:10.1016/j.jct.2015.10.006)

Settings: Liquid, Frequency=8 MHz, Pulse-echo method

CCCCO [butan-1-ol]
Settings	speed of sound [m/s]
253.15 K, 108 kPa	1399.2
253.15 K, 5065 kPa	1423.1
253.15 K, 10086 kPa	1446.2
253.15 K, 15035 kPa	1468.3
253.15 K, 20115 kPa	1490.2
253.15 K, 25062 kPa	1510.8
253.15 K, 30526 kPa	1532.7
273.15 K, 103 kPa	1326.1
273.15 K, 5008 kPa	1351.9
273.15 K, 10094 kPa	1377.2
273.15 K, 15185 kPa	1401.4
273.15 K, 20115 kPa	1424.1
273.15 K, 25088 kPa	1446.1
273.15 K, 30170 kPa	1467.9
293.15 K, 104 kPa	1256.4
293.15 K, 5067 kPa	1284.6
293.15 K, 10144 kPa	1311.7
293.15 K, 15081 kPa	1336.9
293.15 K, 20094 kPa	1361.5
293.15 K, 25087 kPa	1385
293.15 K, 30176 kPa	1408.1
313.15 K, 100 kPa	1189.2
313.15 K, 5050 kPa	1219.2
313.15 K, 10082 kPa	1248.2
313.15 K, 15167 kPa	1276
313.15 K, 20187 kPa	1302.2
313.15 K, 25473 kPa	1328.5
313.15 K, 30162 kPa	1351
333.15 K, 99 kPa	1122.9
333.15 K, 5055 kPa	1155.5
333.15 K, 10099 kPa	1186.8
333.15 K, 15058 kPa	1215.8
333.15 K, 20149 kPa	1244.2
333.15 K, 25167 kPa	1270.8
333.15 K, 30276 kPa	1296.8
353.15 K, 100 kPa	1056.4
353.15 K, 5013 kPa	1091.6
353.15 K, 10032 kPa	1125.3
353.15 K, 15066 kPa	1157.1
353.15 K, 20085 kPa	1187
353.15 K, 25075 kPa	1215.1
353.15 K, 30204 kPa	1242.7

CCO [ethanol]
Settings	speed of sound [m/s]
253.15 K, 101 kPa	1304.8
253.15 K, 4988 kPa	1329.9
253.15 K, 10126 kPa	1355.1
253.15 K, 15056 kPa	1378.4
253.15 K, 19988 kPa	1400.8
253.15 K, 25051 kPa	1423
253.15 K, 30366 kPa	1445.5
273.15 K, 101 kPa	1230.4
273.15 K, 5095 kPa	1258.5
273.15 K, 10288 kPa	1286.1
273.15 K, 15102 kPa	1310.6
273.15 K, 19986 kPa	1334.4
273.15 K, 25007 kPa	1357.9
273.15 K, 30061 kPa	1380.6
293.15 K, 101 kPa	1159.8
293.15 K, 5052 kPa	1190
293.15 K, 9984 kPa	1218.5
293.15 K, 15097 kPa	1246.4
293.15 K, 20038 kPa	1272.2
293.15 K, 25073 kPa	1297.3
293.15 K, 30034 kPa	1321
313.15 K, 101 kPa	1091.6
313.15 K, 5015 kPa	1124.4
313.15 K, 10081 kPa	1156
313.15 K, 15057 kPa	1185.3
313.15 K, 20137 kPa	1213.6
313.15 K, 25255 kPa	1240.7
313.15 K, 30161 kPa	1265.5
333.15 K, 101 kPa	1024.9
333.15 K, 5287 kPa	1062.5
333.15 K, 10309 kPa	1096.4
333.15 K, 15132 kPa	1126.9
333.15 K, 20140 kPa	1156.7
333.15 K, 25071 kPa	1184.6
333.15 K, 30117 kPa	1211.7
353.15 K, 110 kPa	957.67
353.15 K, 5428 kPa	1000.1
353.15 K, 10327 kPa	1036.1
353.15 K, 15492 kPa	1071.3
353.15 K, 20337 kPa	1102.3
353.15 K, 25296 kPa	1132.1
353.15 K, 29944 kPa	1158.6

CO [methanol]
Settings	speed of sound [m/s]
253.15 K, 101 kPa	1259.4
253.15 K, 5031 kPa	1283.6
253.15 K, 10064 kPa	1307.3
253.15 K, 15070 kPa	1329.9
253.15 K, 20048 kPa	1351.5
253.15 K, 25130 kPa	1372.8
253.15 K, 30260 kPa	1393.5
273.15 K, 101 kPa	1187.3
273.15 K, 5017 kPa	1213.8
273.15 K, 10158 kPa	1240
273.15 K, 15070 kPa	1264
273.15 K, 20132 kPa	1287.6
273.15 K, 25155 kPa	1310.1
273.15 K, 30074 kPa	1331.4
293.15 K, 101 kPa	1119.1
293.15 K, 5028 kPa	1147.8
293.15 K, 10032 kPa	1175.5
293.15 K, 15145 kPa	1202.4
293.15 K, 20159 kPa	1227.6
293.15 K, 25062 kPa	1251.1
293.15 K, 30276 kPa	1275.1
313.15 K, 101 kPa	1053.2
313.15 K, 5046 kPa	1084.8
313.15 K, 10127 kPa	1115.4
313.15 K, 15085 kPa	1143.5
313.15 K, 19989 kPa	1170
313.15 K, 25090 kPa	1196.1
313.15 K, 30009 kPa	1220.1
333.15 K, 101 kPa	988.92
333.15 K, 5029 kPa	1023.7
333.15 K, 10110 kPa	1056.9
333.15 K, 15215 kPa	1088.2
333.15 K, 20093 kPa	1116.3
333.15 K, 25061 kPa	1143.5
333.15 K, 30122 kPa	1169.9
353.15 K, 197 kPa	925.58
353.15 K, 5097 kPa	963.76
353.15 K, 10106 kPa	999.62
353.15 K, 15143 kPa	1033
353.15 K, 20216 kPa	1064.5
353.15 K, 25221 kPa	1093.7
353.15 K, 30092 kPa	1120.6

CCCO [propan-1-ol]
Settings	speed of sound [m/s]
253.15 K, 102 kPa	1368
253.15 K, 5133 kPa	1393
253.15 K, 10109 kPa	1416.6
253.15 K, 15198 kPa	1439.9
253.15 K, 20092 kPa	1461.4
253.15 K, 25341 kPa	1483.7
253.15 K, 30423 kPa	1504.6
273.15 K, 101 kPa	1293.5
273.15 K, 5181 kPa	1320.8
273.15 K, 10163 kPa	1346.3
273.15 K, 15287 kPa	1371.4
273.15 K, 20261 kPa	1394.8
273.15 K, 25076 kPa	1416.6
273.15 K, 30164 kPa	1438.9
293.15 K, 105 kPa	1222.5
293.15 K, 5042 kPa	1251.2
293.15 K, 10141 kPa	1279.3
293.15 K, 15272 kPa	1306.3
293.15 K, 20136 kPa	1330.7
293.15 K, 25068 kPa	1354.6
293.15 K, 30231 kPa	1378.5
313.01 K, 30237 kPa	1321.2
313.15 K, 108 kPa	1154.1
313.15 K, 5139 kPa	1185.8
313.15 K, 10136 kPa	1215.4
313.15 K, 15128 kPa	1243.6
313.15 K, 20151 kPa	1270.6
313.15 K, 25136 kPa	1296.1
333.15 K, 101 kPa	1086.8
333.15 K, 5018 kPa	1120.5
333.15 K, 10050 kPa	1152.8
333.15 K, 15186 kPa	1183.9
333.15 K, 20183 kPa	1212.5
333.15 K, 25121 kPa	1239.5
333.15 K, 30028 kPa	1265
353.15 K, 104 kPa	1018.9
353.15 K, 5034 kPa	1056
353.15 K, 10009 kPa	1090.8
353.15 K, 15132 kPa	1124.2
353.15 K, 20099 kPa	1154.8
353.15 K, 25054 kPa	1183.6
353.15 K, 30493 kPa	1213.6
